Results reported in patent US8575156B2, “Cyclic inhibitors of 11β-hydroxysteroid dehydrogenase 1” (Vitae Pharmaceuticals, Inc., priority 2007, dated 2013).
pIC50: −log10 of the molar value. Like-named read-outs stand apart in the source and are kept apart here.

Target: 11β-HSD1 (Homo sapiens, UniProt P28845)
Test: biochemical
Conditions: for pIC50: IC50 Range, Biological Test Example 1, microsomes from CHO cells overexpressing human 11β-HSD1; for inhibition at 0.1111 µM: read-out: Average % inhibition at 111.1 nM, Biological Test Example 1, 111.1 nM compound
[1] = read-out: Average % inhibition at 100 nM, Biological Test Example 1, 100 nM
[2] = read-out: Average % inhibition at 100 nM, Biological Test Example 1, 100 nM compound

Chain of 11β-HSD1 (P28845 whole entry): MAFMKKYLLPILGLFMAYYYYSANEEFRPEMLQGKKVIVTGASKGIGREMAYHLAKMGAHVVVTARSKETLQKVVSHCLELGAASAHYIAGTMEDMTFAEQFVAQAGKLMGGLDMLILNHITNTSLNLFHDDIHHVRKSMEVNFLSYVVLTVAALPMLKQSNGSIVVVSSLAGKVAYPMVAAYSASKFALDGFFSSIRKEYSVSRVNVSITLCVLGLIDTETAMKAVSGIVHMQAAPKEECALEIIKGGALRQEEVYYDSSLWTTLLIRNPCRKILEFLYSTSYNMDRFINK

SMILES: C[C@@H](c1cccc(CO)c1)N1CC[C@](CCCO)(c2ccc(F)cc2)OC1=O [EXAMPLE 363, (R)-6-(4-fluorophenyl)-3-((S)-1-(3-(hydroxymethyl)phenyl)ethyl)-6-(3-hydroxypropyl)-1,3-oxazinan-2-one]
- pIC50: > 7.00
- inhibition at 0.1 µM [1]: 74.5%

SMILES: C[C@@H](c1ccc(-c2ccc(F)cc2)cc1)N1CC[C@@](CCO)(c2cccs2)OC1=O (single isomer, unassigned) [EXAMPLE 218 Isomer 2]
- pIC50: > 7.00
- inhibition at 0.1 µM [2]: 60.3%

SMILES: CC1(c2ccccc2)CCN(c2cccc(Oc3ccccc3)c2)C(=O)O1 (centres unmarked) [EXAMPLE 81, 6-methyl-3-(3-phenoxyphenyl)-6-phenyl-1,3-oxazinan-2-one]
- pIC50: > 7.00
- inhibition at 0.1111 µM: 72.2%

SMILES: CC1(c2ccccc2)CCN(c2cccc(-c3cc(F)cc(F)c3)c2)C(=O)O1 (centres unmarked) [EXAMPLE 27, 3-(3′,5′-difluorobiphenyl-3-yl)-6-methyl-6-phenyl-1,3-oxazinan-2-one]
- pIC50: > 7.00
- inhibition at 0.1111 µM: 67%

SMILES: C[C@@H](c1ccc(-c2ccc(F)cc2)cc1)N1CC[C@](CCC(C)(C)O)(c2ccccc2)OC1=O [EXAMPLE 248, (R)-3-((S)-1-(4′-fluorobiphenyl-4-yl)ethyl)-6-(3-hydroxy-3-methylbutyl)-6-phenyl-1,3-oxazinan-2-one]
- pIC50: > 7.00
- inhibition at 0.1 µM [2]: 96.7%

SMILES: CC(O)CC[C@]1(c2ccc(F)cc2)CCN([C@@H](C)c2ccc(Cl)cc2)C(=O)O1 (single isomer, unassigned) [EXAMPLE 383 Isomer 1]
- pIC50: > 7.00
- inhibition at 0.1 µM [1]: 94.7%

SMILES: C=CC[C@]1(c2ccc(F)cc2)CCN([C@@H](C)c2ccc(C(=O)NC)cc2)C(=O)O1 [EXAMPLE 155, 4-((S)-1-((R)-6-allyl-6-(4-fluorophenyl)-2-oxo-1,3-oxazinan-3-yl)ethyl)-N-methylbenzamide]
- pIC50: 6.00 to 7.00
- inhibition at 0.1111 µM: 45.6%

SMILES: CCC[C@]1(c2ccccc2)CCN([C@@H](C)c2ccc(-c3ccc(F)cc3F)cc2)C(=O)O1 [EXAMPLE 226, (R)-3-((S)-1-(2′,4′-difluorobiphenyl-4-yl)ethyl)-6-phenyl-6-propyl-1,3-oxazinan-2-one]
- pIC50: > 7.00
- inhibition at 0.1 µM [2]: 90.7%

SMILES: CC1(c2ccccc2)CCN(c2cccc(-c3ccc(C(N)=O)cc3)c2)C(=O)O1 (centres unmarked) [EXAMPLE 44, 3′-(6-methyl-2-oxo-6-phenyl-1,3-oxazinan-3-yl)biphenyl-4-carboxamide]
- pIC50: 6.00 to 7.00
- inhibition at 0.1111 µM: 35%

SMILES: Cc1ccc([C@H](C)N2CC[C@](CCCNS(C)(=O)=O)(c3ccc(F)cc3)OC2=O)cc1 [EXAMPLE 420, N-(3-((R)-6-(4-fluorophenyl)-2-oxo-3-((S)-1-p-tolylethyl)-1,3-oxazinan-6-yl)propyl)methanesulfonamide]
- pIC50: > 7.00
- inhibition at 0.1 µM [1]: 97.3%

SMILES: CN(C)C(=O)c1ccc(-c2cccc(N3CCC(C)(c4ccccc4)OC3=O)c2)cc1 (centres unmarked) [EXAMPLE 42, N,N-dimethyl-3′-(6-methyl-2-oxo-6-phenyl-1,3-oxazinan-3-yl)biphenyl-4-carboxamide]
- pIC50: 6.00 to 7.00
- inhibition at 0.1111 µM: 36.7%

SMILES: CC1(c2ccccc2)CCN(Cc2ccccc2Br)C(=O)O1 (centres unmarked) [EXAMPLE 72, 3-(2-bromobenzyl)-6-methyl-6-phenyl-1,3-oxazinan-2-one]
- pIC50: > 7.00
- inhibition at 0.1111 µM: 77.5%

SMILES: CC1(c2ccccc2)CCN(c2cccc(-c3cccc(C#N)c3)c2)C(=O)O1 (centres unmarked) [EXAMPLE 17, 3′-(6-methyl-2-oxo-6-phenyl-1,3-oxazinan-3-yl)biphenyl-3-carbonitrile]
- pIC50: > 7.00
- inhibition at 0.1111 µM: 58.8%

SMILES: COc1ccc([C@H](C)N2CC[C@](CC(C)(C)O)(c3ccc(F)cc3)OC2=O)cc1 [EXAMPLE 425, (S)-6-(4-fluorophenyl)-6-(2-hydroxy-2-methylpropyl)-3-((S)-1-(4-methoxyphenyl)ethyl)-1,3-oxazinan-2-one]
- pIC50: > 7.00
- inhibition at 0.1 µM [1]: 96.2%

SMILES: O=C1OC(CCO)(c2ccc(F)cc2)CCN1c1cccc(-c2ccc(F)cc2Cl)n1 (centres unmarked) [EXAMPLE 118, 3-(6-(2-chloro-4-fluorophenyl)pyridin-2-yl)-6-(4-fluorophenyl)-6-(2-hydroxyethyl)-1,3-oxazinan-2-one]
- pIC50: > 7.00
- inhibition at 0.1111 µM: 96.8%

SMILES: CC[C@@H](c1ccc(Br)cc1)N1CCC(CCO)(c2ccc(F)cc2)OC1=O (single isomer, unassigned) [EXAMPLE 143 Isomer 1]
- pIC50: > 7.00
- inhibition at 0.1111 µM: 54.4%

SMILES: C[C@@H](c1ccc(Br)cc1)N1CC[C@](CCN2CCNC(=O)C2)(c2ccc(F)cc2)OC1=O [EXAMPLE 379, (R)-3-((S)-1-(4-bromophenyl)ethyl)-6-(4-fluorophenyl)-6-(2-(3-oxopiperazin-1-yl)ethyl)-1,3-oxazinan-2-one]
- pIC50: > 7.00
- inhibition at 0.1 µM [1]: 57.7%

SMILES: COc1ccc([C@H](C)N2CC[C@](CC(C)(C)O)(c3ccccc3)OC2=O)cc1 [EXAMPLE 427, (S)-6-(2-hydroxy-2-methylpropyl)-3-((S)-1-(4-methoxyphenyl)ethyl)-6-phenyl-1,3-oxazinan-2-one]
- pIC50: > 7.00
- inhibition at 0.1 µM [1]: 97.8%

SMILES: CC(=O)c1ccc(-c2ccc([C@H](C)N3CC[C@](CCCO)(c4ccccc4)OC3=O)cc2)s1 [EXAMPLE 249, (R)-3-((S)-1-(4-(5-acetylthiophen-2-yl)phenyl)ethyl)-6-(3-hydroxypropyl)-6-phenyl-1,3-oxazinan-2-one]
- pIC50: > 7.00
- inhibition at 0.1 µM [2]: 96.3%

SMILES: COCCNC(=O)c1cccc(-c2cccc(N3CCC(C)(c4ccccc4)OC3=O)c2)c1 (centres unmarked) [EXAMPLE 18, N-(2-methoxyethyl)-3′-(6-methyl-2-oxo-6-phenyl-1,3-oxazinan-3-yl)biphenyl-3-carboxamide]
- pIC50: 6.00 to 7.00
- inhibition at 0.1111 µM: 7.2%

SMILES: C[C@@H](c1ccc(Cl)cc1)N1CC[C@](CCO)(c2ccccc2)OC1=O [EXAMPLE 401, (S)-3-((S)-1-(4-chlorophenyl)ethyl)-6-(2-hydroxyethyl)-6-phenyl-1,3-oxazinan-2-one]
- pIC50: > 7.00
- inhibition at 0.1 µM [1]: 98.6%

SMILES: CC(O)c1ccc(-c2ccc([C@H](C)N3CC[C@](CCCO)(c4ccccc4)OC3=O)cc2)s1 (stereo partly drawn) [EXAMPLE 254, (6R)-3-((1S)-1-(4-(5-(1-hydroxyethyl)thiophen-2-yl)phenyl)ethyl)-6-(3-hydroxypropyl)-6-phenyl-1,3-oxazinan-2-one]
- pIC50: > 7.00
- inhibition at 0.1 µM [2]: 96%

SMILES: CC[C@@H](c1ccc(Br)cc1)N1CC[C@](CCCO)(c2ccccc2)OC1=O [EXAMPLE 220, (R)-3-((S)-1-(4-bromophenyl)propyl)-6-(3-hydroxypropyl)-6-phenyl-1,3-oxazinan-2-one]
- pIC50: > 7.00
- inhibition at 0.1 µM (read-out: Average % inhibition at 100 nM): 85.5%

SMILES: C[C@@H](c1ccc(Cl)cc1F)N1CC[C@](CC(C)(C)C(N)=O)(c2ccc(F)cc2)OC1=O [EXAMPLE 578, 3-((R)-3-((S)-1-(4-chloro-2-fluorophenyl)ethyl)-6-(4-fluorophenyl)-2-oxo-1,3-oxazinan-6-yl)-2,2-dimethylpropanamide]
- pIC50: > 7.00
- inhibition at 0.1 µM [1]: 97.7%

SMILES: C[C@@H](c1ccc(-c2ccc(F)cc2)cc1)N1CC[C@](CCCOP(=O)(O)O)(c2ccccc2)OC1=O [EXAMPLE 310, 3-((R)-3-((S)-1-(4′-fluorobiphenyl-4-yl)ethyl)-2-oxo-6-phenyl-1,3-oxazinan-6-yl)propyl dihydrogen phosphate]
- pIC50: > 7.00
- inhibition at 0.1 µM [1]: 77.5%
